According to ChEMBL document CHEMBL1139770, “Non-nucleoside inhibitors of the measles virus RNA-dependent RNA polymerase complex activity: Synthesis and in vitro evaluation” (Bioorg Med Chem Lett, 2007):

What was measured:
[1] = Cytotoxicity against Vero cells by MTT assay; type: cell-based; conditions: chlorocebus sabaeus
Measles morbillivirus [2] = test: Antiviral activity against Measles virus Alaska assessed as inhibition of viral-induced cytopathicity; type: functional, organism-based
[3] = Cytotoxicity against Vero cells by Trypan blue exclusion assay; type: cell-based; conditions: chlorocebus sabaeus
Measles morbillivirus [4] = test: Antiviral activity against Measles virus Alaska assessed as virus titer reduction; type: functional
[5] = Ratio of CC50 for Vero cells to IC50 for Measles virus Alaska; type: functional

| EC50 (Measles morbillivirus [2]) [µM] | Structure (SMILES) | CC50 [1] [µM] | CC50 [3] [µM] | Activity (Measles morbillivirus [4]) [µM] | Ratio CC50/IC50 [5] |
| --- | --- | --- | --- | --- | --- |
| > 75 | Cn1nc(C(F)(F)F)cc1CNc1ccc(S(=O)(=O)N2CCCC2)cc1 | > 300 | – | – | – |
| 15.5 | Cn1nc(C(F)(F)F)cc1C(=O)Cc1ccc(S(=O)(=O)N2CCCC2)cc1 | > 300 | – | – | – |
| > 75 | Cc1nc(C(F)(F)F)ccc1C(=O)Nc1ccc(S(=O)(=O)N2CCCC2)cc1 | > 300 | – | – | – |
| 23 | Cn1nc(C(F)(F)F)cc1C(=O)Nc1ccc(S(=O)(=O)N2CCC[C@H]2C(=O)O)cc1 | > 300 | – | – | – |
| ≥ 75 | O=C(Nc1ccc(S(=O)(=O)N2CCCC2)cc1)c1cc(C(F)(F)F)ccc1F | 76 | – | – | – |
| ≥ 75 | Cn1nc(C(F)(F)F)cc1C(=O)Nc1ccc(S(=O)(=O)N2CCCC2)cc1N | > 300 | – | – | – |
| 48 | O=C(Nc1ccc(S(=O)(=O)N2CCCC2)cc1)c1ccc(C(F)(F)F)cc1 | > 300 | – | – | – |
| 14 | Cn1nc(C(F)(F)F)cc1C(=O)Nc1ccc(S(=O)(=O)N2CCC[C@H]2C(=O)OCc2ccccc2)cc1 | 100 | – | – | – |
| > 75 | O=C(Nc1ccc(S(=O)(=O)N2CCCC2)cc1)c1ccc(F)cc1 | > 300 | – | – | – |
| > 75 | Cn1nc(C(F)(F)F)cc1COc1ccc(S(=O)(=O)N2CCCC2)cc1 | > 300 | – | – | – |
| > 75 | COc1ccc(Br)c(C(=O)Nc2ccc(S(=O)(=O)N3CCCC3)cc2)c1 | > 300 | – | – | – |
| – | O=C(Nc1ccc(S(=O)(=O)N2CCCC2)cc1)c1ccc(Br)cc1 | 59 | – | – | – |
| > 75 | O=C(Nc1ccc(S(=O)(=O)N2CCCC2)cc1)c1cccc(C(F)(F)F)c1 | > 300 | – | – | – |
| 65 | O=C(Nc1ccc(S(=O)(=O)N2CCCC2)cc1)c1nccn1-c1ccccc1C(F)(F)F | > 300 | – | – | – |
| > 75 | O=C(Nc1ccc(S(=O)(=O)N2CCCC2)cc1)c1cc(C(F)(F)F)nn1Cc1ccccc1 | 37 | – | – | – |
| – | Cn1nc(C(F)(F)F)cc1C(=O)Nc1ccc(S(=O)(=O)N2CCCC2)cc1OC(=O)c1cc(C(F)(F)F)nn1C | 14 | – | – | – |
| – | O=C(Nc1ccc(S(=O)(=O)N2CCCC2)cc1)c1ccc(CCl)cc1 | 11 | – | – | – |

| EC50 (Measles morbillivirus [2]) [µM] | Structure (SMILES) | CC50 [1] [µM] | CC50 [3] [µM] | Activity (Measles morbillivirus [4]) [µM] | Ratio CC50/IC50 [5] |
| --- | --- | --- | --- | --- | --- |
| > 75 | Cn1nc(C(F)(F)F)cc1C(=O)Nc1ccc(S(=O)(=O)N2CCCCC2C(=O)O)cc1 (stereo unspecified) | > 300 | – | – | – |
| > 75 | O=C(Nc1ccc(S(=O)(=O)N2CCCC2)cc1)c1ccc(C(F)(F)F)cc1[N+](=O)[O-] | > 300 | – | – | – |
| > 75 | O=C(Nc1ccc(S(=O)(=O)N2CCCC2)cc1)c1ccc([N+](=O)[O-])cc1Cl | > 300 | – | – | – |
| > 75 | O=C(Nc1ccc(S(=O)(=O)N2CCCC2)cc1)c1ccco1 | > 300 | – | – | – |
| > 75 | Cn1nc(C(F)(F)F)cc1C(=O)Nc1ccc(S(=O)(=O)N2CCCC2)cc1O | 288 | – | – | – |
| > 75 | O=C(Nc1ccc(S(=O)(=O)N2CCCC2)cc1)c1cccs1 | > 300 | – | – | – |
| 43 | Cn1nc(C(F)(F)F)cc1C(=O)Nc1ccc(S(=O)(=O)N2CCOCC2)cc1 | > 300 | – | – | – |
| – | Cn1nc(C(F)(F)F)cc1C(=O)Nc1ccc(S(=O)(=O)n2ccc3ccccc32)cc1 | 13 | – | – | – |
| > 75 | O=C(Nc1ccc(S(=O)(=O)N2CCCC2)cc1)c1ccccc1C(F)(F)F | > 300 | – | – | – |
| 41 | Cn1nc(C(F)(F)F)cc1C(O)Cc1ccc(S(=O)(=O)N2CCCC2)cc1 (stereo unspecified) | > 300 | – | – | – |
| – | Cn1nc(C(F)(F)F)cc1C(=O)Nc1ccc(S(=O)(=O)N2CCCC2)cc1NC(=O)c1cc(C(F)(F)F)nn1C | 13 | – | – | – |
| < 2.3 | Cn1nc(C(F)(F)F)cc1C(=O)Nc1ccc(S(=O)(=O)N2CCCCC2)cc1 | > 300 | 199 | 0.012 | 16500 |
| 25 | Cn1nc(C(C)(C)C)cc1C(=O)Nc1ccc(S(=O)(=O)N2CCCC2)cc1 | 140 | – | – | – |
| 28 | Cn1nc(C(F)(F)F)cc1C(=O)Nc1ccc(S(=O)(=O)N2CCNCC2)cc1 | 126 | – | – | – |
| > 75 | Nc1ccc(C(=O)Nc2ccc(S(=O)(=O)N3CCCC3)cc2)c(Cl)c1 | > 300 | – | – | – |
| > 75 | O=C(Nc1ccc(S(=O)(=O)N2CCCC2)cc1)c1nc2ccccc2s1 | > 300 | – | – | – |
| > 75 | Cc1cc(C(=O)Nc2ccc(S(=O)(=O)N3CCCC3)cc2)n(C)n1 | > 300 | – | – | – |
